Laboratory results published in the NIST ThermoML archive (doi:10.1016/j.jct.2009.04.002).
Values joined by “and” are separate entries in the source; they are usually repeats but may differ in a detail not shown here. Identical values can stand only once.

Settings: Liquid

CC(C)CCCCCCCOC(=O)c1ccccc1C(=O)OCCCCCCCC(C)C
Settings | mass density, SVM3000 rotational viscometer | viscosity, Rotational Automated Viscometer
278.15 K | 977.3 kg/m3 and 977.5 kg/m3 and 977.1 kg/m3 | 404.6 mPa·s and 413.1 mPa·s and 412.2 mPa·s
283.15 K | 973.8 kg/m3 and 974 kg/m3 and 973.5 kg/m3 | 261.2 mPa·s and 267 mPa·s and 266.2 mPa·s
288.15 K | 970.2 kg/m3 and 970.4 kg/m3 and 969.9 kg/m3 | 175.9 mPa·s and 179.4 mPa·s and 178.9 mPa·s
293.15 K | 966.7 kg/m3 and 966.9 kg/m3 and 966.4 kg/m3 | 122.3 mPa·s and 124.5 mPa·s and 124.4 mPa·s
298.15 K | 963.2 kg/m3 and 963.4 kg/m3 and 962.9 kg/m3 | 87.52 mPa·s and 89.06 mPa·s and 88.94 mPa·s
303.15 K | 959.7 kg/m3 and 959.8 kg/m3 and 959.4 kg/m3 | 64.31 mPa·s and 65.45 mPa·s and 65.32 mPa·s
308.15 K | 956.2 kg/m3 and 956.3 kg/m3 and 955.9 kg/m3 | 48.46 mPa·s and 49.29 mPa·s and 49.16 mPa·s
313.15 K | 952.7 kg/m3 and 952.8 kg/m3 and 952.4 kg/m3 | 37.35 mPa·s and 37.97 mPa·s and 37.87 mPa·s
318.15 K | 949.2 kg/m3 and 949.3 kg/m3 and 948.9 kg/m3 | 29.38 mPa·s and 29.83 mPa·s and 29.75 mPa·s
323.15 K | 945.7 kg/m3 and 945.8 kg/m3 and 945.3 kg/m3 | 23.51 mPa·s and 23.87 mPa·s and 23.79 mPa·s
328.15 K | 942.2 kg/m3 and 941.8 kg/m3 | 19.13 mPa·s and 19.41 mPa·s and 19.35 mPa·s

Settings | mass density, Vibrating tube method | viscosity, Falling or rolling sphere viscometry
283.15 K, 100 kPa | 973.4 kg/m3 and 973.5 kg/m3 and 973.1 kg/m3 | –
283.15 K, 1000 kPa | 973.7 kg/m3 and 974 kg/m3 and 973.6 kg/m3 | –
283.15 K, 5000 kPa | 975.9 kg/m3 and 976.2 kg/m3 and 975.7 kg/m3 | –
283.15 K, 10000 kPa | 978.4 kg/m3 and 978.8 kg/m3 and 978.3 kg/m3 | –
283.15 K, 20000 kPa | 983.5 kg/m3 and 983.9 kg/m3 and 983.4 kg/m3 | –
283.15 K, 30000 kPa | 988.3 kg/m3 and 988.6 kg/m3 and 988.1 kg/m3 | –
283.15 K, 40000 kPa | 992.8 kg/m3 and 993.1 kg/m3 and 992.7 kg/m3 | –
283.15 K, 50000 kPa | 997.2 kg/m3 and 997.5 kg/m3 and 997 kg/m3 | –
283.15 K, 60000 kPa | 1001.4 kg/m3 and 1001.7 kg/m3 and 1001.3 kg/m3 | –
283.15 K, 70000 kPa | 1005.4 kg/m3 and 1005.8 kg/m3 | –
298.15 K, 100 kPa | 963 kg/m3 and 963.2 kg/m3 and 962.8 kg/m3 | –
298.15 K, 1000 kPa | 963.4 kg/m3 and 963.8 kg/m3 and 963.3 kg/m3 | –
298.15 K, 5000 kPa | 965.7 kg/m3 and 966.1 kg/m3 | –
298.15 K, 10000 kPa | 968.4 kg/m3 and 968.9 kg/m3 and 968.5 kg/m3 | –
298.15 K, 20000 kPa | 973.7 kg/m3 and 974.2 kg/m3 and 973.8 kg/m3 | –
298.15 K, 30000 kPa | 978.7 kg/m3 and 979.1 kg/m3 | –
298.15 K, 40000 kPa | 983.4 kg/m3 and 983.8 kg/m3 | –
298.15 K, 50000 kPa | 988 kg/m3 and 988.3 kg/m3 and 987.9 kg/m3 | –
298.15 K, 60000 kPa | 992.4 kg/m3 and 992.8 kg/m3 and 992.3 kg/m3 | –
298.15 K, 70000 kPa | 996.6 kg/m3 and 997 kg/m3 | –
303.15 K, 100 kPa | – | 65 mPa·s and 64.6 mPa·s
303.15 K, 1000 kPa | – | 66.4 mPa·s and 66 mPa·s
303.15 K, 5000 kPa | – | 72.9 mPa·s and 72.6 mPa·s
303.15 K, 10000 kPa | – | 82 mPa·s and 81.7 mPa·s
303.15 K, 20000 kPa | – | 103 mPa·s
303.15 K, 30000 kPa | – | 130 mPa·s and 129 mPa·s
303.15 K, 40000 kPa | – | 162 mPa·s
303.15 K, 50000 kPa | – | 202 mPa·s and 201 mPa·s
303.15 K, 60000 kPa | – | 251 mPa·s and 250 mPa·s
313.15 K, 100 kPa | – | 38 mPa·s and 38.5 mPa·s
313.15 K, 1000 kPa | – | 38.7 mPa·s and 39.3 mPa·s
313.15 K, 5000 kPa | – | 42.2 mPa·s and 42.8 mPa·s
313.15 K, 10000 kPa | – | 46.9 mPa·s and 47.6 mPa·s
313.15 K, 20000 kPa | – | 57.8 mPa·s and 58.8 mPa·s
313.15 K, 30000 kPa | – | 71.1 mPa·s and 72.4 mPa·s
313.15 K, 40000 kPa | – | 87.2 mPa·s and 88.8 mPa·s
313.15 K, 50000 kPa | – | 107 mPa·s and 109 mPa·s
313.15 K, 60000 kPa | – | 130 mPa·s and 132 mPa·s
323.15 K, 100 kPa | 945.4 kg/m3 and 945.7 kg/m3 and 945.2 kg/m3 | –
323.15 K, 1000 kPa | 945.8 kg/m3 and 946.3 kg/m3 | –
323.15 K, 5000 kPa | 948.4 kg/m3 and 948.8 kg/m3 and 948.3 kg/m3 | –
323.15 K, 10000 kPa | 951.5 kg/m3 and 951.9 kg/m3 and 951.4 kg/m3 | –
323.15 K, 20000 kPa | 957.4 kg/m3 and 957.9 kg/m3 | –
323.15 K, 30000 kPa | 962.9 kg/m3 and 963.3 kg/m3 and 962.8 kg/m3 | –
323.15 K, 40000 kPa | 968.1 kg/m3 and 968.5 kg/m3 and 968 kg/m3 | –
323.15 K, 50000 kPa | 973.1 kg/m3 and 973.4 kg/m3 and 973 kg/m3 | –
323.15 K, 60000 kPa | 977.8 kg/m3 and 978.1 kg/m3 and 977.7 kg/m3 | –
323.15 K, 70000 kPa | 982.3 kg/m3 and 982.6 kg/m3 and 982.2 kg/m3 | –
333.15 K, 100 kPa | 938.4 kg/m3 and 938.7 kg/m3 and 938.2 kg/m3 | 16.1 mPa·s and 15.5 mPa·s and 16 mPa·s
333.15 K, 1000 kPa | 938.9 kg/m3 and 939.3 kg/m3 and 938.8 kg/m3 | 16.4 mPa·s and 15.7 mPa·s and 16.3 mPa·s
333.15 K, 5000 kPa | 941.6 kg/m3 and 942 kg/m3 and 941.5 kg/m3 | 17.7 mPa·s and 17 mPa·s and 17.6 mPa·s
333.15 K, 10000 kPa | – | 19.5 mPa·s and 18.6 mPa·s and 19.3 mPa·s
